The assay has as its target T1, full length SGK1 (Homo sapiens, UniProt O00141).
T1 construct: 125 μM full length SGK1 (Life Technologies Part #PR7358A); purchased Life Technologies PR7358A
T1 sequence (O00141 1-431): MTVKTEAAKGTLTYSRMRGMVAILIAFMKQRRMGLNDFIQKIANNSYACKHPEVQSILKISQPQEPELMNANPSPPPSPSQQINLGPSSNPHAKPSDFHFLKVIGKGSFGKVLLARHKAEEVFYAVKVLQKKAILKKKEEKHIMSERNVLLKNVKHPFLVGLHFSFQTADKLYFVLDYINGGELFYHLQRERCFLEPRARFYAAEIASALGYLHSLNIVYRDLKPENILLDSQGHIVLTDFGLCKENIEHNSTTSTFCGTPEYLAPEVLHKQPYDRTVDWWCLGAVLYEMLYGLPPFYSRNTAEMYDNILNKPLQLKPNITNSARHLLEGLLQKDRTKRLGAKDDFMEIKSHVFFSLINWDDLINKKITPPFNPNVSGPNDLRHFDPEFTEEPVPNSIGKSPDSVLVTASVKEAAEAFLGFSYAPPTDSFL
Put plainly: SGK1 inhibition Assay A (Caliper LabChip electrophoretic separation of fluorescent peptide substrate and phosphorylated product). To be noted: Assay A; 20 μM ATP, 40 min incubation; read-out: SGK1 IC50. It is filed as biochemical.

Where a name gives a salt, the structure may show the parent alone.

For orientation: IC50 means the point on the concentration scale where inhibition reaches its midpoint.

In the case of `Nc1ncnn2c(-c3cncnc3)cc(N3CCC[C@@H](NC(=O)c4sc5ccc(F)cc5c4OC4CCNCC4)C3)c12` [Example 688, (R)—N-(1-(4-amino-7-(pyrimidin-5-yl)pyrrolo[2,1-f][1,2,4]triazin-5-yl)piperidin-3-yl)-5-fluoro-3-(piperidin-4-yloxy)benzo[b]thiophene-2-carboxamide], the IC50 is 161 nM.

Turning to `COC(=O)N1CC=C(c2cc(N3CCC[C@@H](NC(=O)c4n[nH]c5ccc(N)cc45)C3)c3c(N)ncnn23)C1` [Example 689, methyl (R)-3-(4-amino-5-(3-(5-amino-1H-indazole-3-carboxamido)piperidin-1-yl)pyrrolo[2,1-f][1,2,4]triazin-7-yl)-2,5-dihydro-1H-pyrrole-1-carboxylate], the half-inhibitory concentration (IC50) was 53 nM.

On to `Nc1ccc2[nH]nc(C(=O)N[C@@H]3CCCN(c4cc(-c5cncnc5)n5ncnc(N)c45)C3)c2c1` [Example 690, (R)-5-amino-N-(1-(4-amino-7-(pyrimidin-5-yl)pyrrolo[2,1-f][1,2,4]triazin-5-yl)piperidin-3-yl)-1H-indazole-3-carboxamide], for which the IC50 was 507 nM.

On to `Cc1cc(-c2cc(N3CCC[C@@H](NC(=O)c4sc(Cl)cc4OCCN(C)C)C3)c3c(N)ncnn23)cn(C)c1=O` [Example 691, (R)—N-(1-(4-amino-7-(1,5-dimethyl-6-oxo-1,6-dihydropyridin-3-yl)pyrrolo[2,1-f][1,2,4]triazin-5-yl)piperidin-3-yl)-5-chloro-3-(2-(dimethylamino)ethoxy)thiophene-2-carboxamide], for which the 50% inhibitory concentration (IC50) is 115 nM.

On to `CCn1cc(-c2cc(N3CCC[C@@H](NC(=O)c4sc(Cl)cc4OCCN(C)C)C3)c3c(N)ncnn23)cc(C)c1=O` [Example 692, (R)—N-(1-(4-amino-7-(1-ethyl-5-methyl-6-oxo-1,6-dihydropyridin-3-yl)pyrrolo[2,1-f][1,2,4]triazin-5-yl)piperidin-3-yl)-5-chloro-3-(2-(dimethylamino)ethoxy)thiophene-2-carboxamide], for which the IC50 worked out at 98 nM.

Take `Cc1cc(-c2cc(N3CCC[C@@H](NC(=O)c4sc(Cl)cc4OCCN(C)C)C3)c3c(N)ncnn23)cn(C(C)C)c1=O` [Example 693, (R)—N-(1-(4-amino-7-(1-isopropyl-5-methyl-6-oxo-1,6-dihydropyridin-3-yl)pyrrolo[2,1-f][1,2,4]triazin-5-yl)piperidin-3-yl)-5-chloro-3-(2-(dimethylamino)ethoxy)thiophene-2-carboxamide]: the half-maximal inhibitory concentration (IC50) was 69 nM.

Turning to `Cc1cc(-c2cc(N3CCC[C@@H](NC(=O)c4sc(Cl)cc4OCCN(C)C)C3)c3c(N)ncnn23)cn(CC(C)C)c1=O` [Example 694, (R)—N-(1-(4-amino-7-(1-isobutyl-5-methyl-6-oxo-1,6-dihydropyridin-3-yl)pyrrolo[2,1-f][1,2,4]triazin-5-yl)piperidin-3-yl)-5-chloro-3-(2-(dimethylamino)ethoxy)thiophene-2-carboxamide], the IC50 worked out at 103 nM.

Turning to `Nc1ncnn2c(C#Cc3ccncc3)cc(N3CCC[C@@H](NC(=O)c4ccc(Cl)s4)C3)c12` [Example 695, (R)—N-(1-(4-amino-7-(pyridin-4-ylethynyl)pyrrolo[2,1-f][1,2,4]triazin-5-yl)piperidin-3-yl)-5-chlorothiophene-2-carboxamide, TFA salt], the half-inhibitory concentration (IC50) came out at 242 nM.

Turning to `N#Cc1ccc(C(=O)N[C@@H]2CCCN(c3cc(C#N)n4ncnc(N)c34)C2)s1` [Example 696, (R)—N-(1-(4-amino-7-cyanopyrrolo[2,1-f][1,2,4]triazin-5-yl)piperidin-3-yl)-5-cyanothiophene-2-carboxamide], the half-inhibitory concentration (IC50) came to 80 nM.

On to `CC(=O)N1CC=C(c2cc(N3CCC[C@@H](NC(=O)c4cccc(OCCN5CCOCC5)n4)C3)c3c(N)ncnn23)C1` [Example 700, (R)—N-(1-(7-(1-acetyl-2,5-dihydro-1H-pyrrol-3-yl)-4-aminopyrrolo[2,1-f][1,2,4]triazin-5-yl)piperidin-3-yl)-6-(2-morpholinoethoxy)picolinamide], for which the IC50 came to 25 nM.

Turning to `CC(=O)N1CC=C(c2cc(N3CCC[C@@H](NC(=O)c4cccc(OCCN5CCN(C)CC5)n4)C3)c3c(N)ncnn23)C1` [Example 701, (R)-N-(1-(7-(1-acetyl-2,5-dihydro-1H-pyrrol-3-yl)-4-aminopyrrolo[2,1-f][1,2,4]triazin-5-yl)piperidin-3-yl)-6-(2-(4-methylpiperazin-1-yl)ethoxy)picolinamide], the IC50 stood at 11 nM.

On to `CC(=O)N1CC=C(c2cc(N3CCC[C@@H](NC(=O)c4cccc(OCCN(C)C)n4)C3)c3c(N)ncnn23)C1` [Example 702, (R)-N-(1-(7-(1-acetyl-2,5-dihydro-1H-pyrrol-3-yl)-4-aminopyrrolo[2,1-f][1,2,4]triazin-5-yl)piperidin-3-yl)-6-(2-(dimethylamino)ethoxy) picolinamide], for which the half-maximal inhibitory concentration (IC50) was found to be 12 nM.

With `CC(=O)N1CC=C(c2cc(N3CCC[C@@H](NC(=O)c4cccc(N5CCOCC5)n4)C3)c3c(N)ncnn23)C1` [Example 703, (R)-N-(1-(7-(1-acetyl-2,5-dihydro-1H-pyrrol-3-yl)-4-aminopyrrolo[2,1-f][1,2,4]triazin-5-yl)piperidin-3-yl)-6-morpholinopicolinamide], the 50% inhibitory concentration (IC50) was determined as 29 nM.

`CC(=O)N1CC=C(c2cc(N3CCC[C@@H](NC(=O)c4cccc(N5CCN(C)CC5)n4)C3)c3c(N)ncnn23)C1` [Example 704, (R)-N-(1-(7-(1-acetyl-2,5-dihydro-1H-pyrrol-3-yl)-4-aminopyrrolo[2,1-f][1,2,4]triazin-5-yl)piperidin-3-yl)-6-(4-methylpiperazin-1-yl)picolinamide]: the IC50 stood at 11 nM.

With `CC(=O)N1CC=C(c2cc(N3CCC[C@@H](NC(=O)C4CC5(C4)CC(F)(F)C5)C3)c3c(N)ncnn23)C1` [Example 705, (R)-N-(1-(7-(1-acetyl-2,5-dihydro-1H-pyrrol-3-yl)-4-aminopyrrolo[2,1-f][1,2,4]triazin-5-yl)piperidin-3-yl)-6,6-difluorospiro[3.3]heptane-2-carboxamide], the concentration for half-maximal inhibition (IC50) worked out at 760 nM.

In the case of `CC(=O)N1CC=C(c2cc(N3CCC[C@@H](NC(=O)c4ccnc(OCCN(C)C)c4)C3)c3c(N)ncnn23)C1` [Example 706, (R)-N-(1-(7-(1-acetyl-2,5-dihydro-1H-pyrrol-3-yl)-4-aminopyrrolo[2,1-f][1,2,4]triazin-5-yl)piperidin-3-yl)-2-(2-(dimethylamino)ethoxy) isonicotinamide], the 50% inhibitory concentration (IC50) was found to be 57 nM.

As for `CC(=O)N1CC=C(c2cc(N3CCC[C@@H](NC(=O)c4ccnc(OCCN5CCOCC5)c4)C3)c3c(N)ncnn23)C1` [Example 707, (R)-N-(1-(7-(1-acetyl-2,5-dihydro-1H-pyrrol-3-yl)-4-aminopyrrolo[2,1-f][1,2,4]triazin-5-yl)piperidin-3-yl)-2-(2-morpholinoethoxy) isonicotinamide], the IC50 came out at 68 nM.

As for `CC(=O)N1CC=C(c2cc(N3CCC[C@@H](NC(=O)c4nccn4C)C3)c3c(N)ncnn23)C1` [Example 708], the IC50 came out at 494 nM.

With `CC(=O)N1CC=C(c2cc(N3CCC[C@@H](NC(=O)c4cccc(OC5CCN(C)CC5)n4)C3)c3c(N)ncnn23)C1` [Example 709, (R)-N-(1-(7-(1-acetyl-2,5-dihydro-1H-pyrrol-3-yl)-4-aminopyrrolo[2,1-f][1,2,4]triazin-5-yl)piperidin-3-yl)-6-((1-methylpiperidin-4-yl)oxy)picolinamide], the half-maximal inhibitory concentration (IC50) was 16 nM.

The values are drawn from patent publication US20260250290A1 (BRISTOL-MYERS SQUIBB COMPANY, priority 2023, published 2026).
